Values of other authors in patent publication US20250090476A1, “PHARMACEUTICAL COMPOSITION AND BREXPIPRAZOLE ORALLY SOLUABLE FILM” (WISDOM PHARMACEUTICAL CO., LTD., priority 2022, published 2025).

solubility: low
SMILES: O=c1ccc2ccc(OCCCCN3CCN(c4cccc5sccc45)CC3)cc2[nH]1 [Brexpiprazole]
